Data reported in patent US20020120008A1, “Life extension of drosophila by a drug treatment” (priority 2000, published 2002).

Key:
[1] = tested on: Drosophila; test: Life span of Drosophila fed various concentrations of PBA; type: in vivo, Drosophila melanogaster
[2] = tested on: Drosophila; test: Life span of Drosophila fed PBA early or late in life; type: in vivo, Drosophila melanogaster
[3] = tested on: Drosophila; test: Food intake (food dye in alimentary tract), caloric restriction test; type: in vivo, Drosophila melanogaster; settings: overnight feeding, ten flies per group
Description: (§1) Caloric restriction increases life span in rodents, worms, and yeast (Guarente, L & Kenyon, C. Nature 408, 255-262 (2000)). Although PBA is odorless and tasteless to human, flies may dislike the smell or taste of the drug, which may cause caloric restriction. To test the issue of possible caloric restriction effects, the intake of food was measured by adding food dye to both the control and PBA containing media. After an overnight feeding, the alimentary tracts of ten flies from each group were dissected out and examined for color. No difference in the alimentary tract of these flies was discernible. Further, the weight and size of the flies were measured after ten days of feeding with or without PBA (Table 1). […] Therefore, the extension of life span observed in Drosophila fed PBA is most likely not due to caloric restriction.

[4] = tested on: Drosophila; test: Weight and size of flies fed PBA; type: in vivo, Drosophila melanogaster
Description: (§2) Table 1 is a comparison of weight, size and reproductive ability of Drosophila raised on food with and without 10 mM PBA for 10 days at 25° C., as described in Example 1, infra.
as §1

[5] = tested on: Drosophila; test: Reproductive activity of Drosophila fed PBA (eggs, adult progeny, progeny weight and size); type: in vivo, Drosophila melanogaster
Description: as §2
Reproductive signaling in C. elegans and Drosophila also contribute to extend life span (Guarente, L & Kenyon, C. Nature 408, 255-262 (2000)). PBA treatment may slow down reproduction of flies and thus results in the extension of life span. The role of PBA on the reproductive activity of female Drosophila was examined by counting the number of eggs layed, the percentage of eggs yielding adult progeny, and the weight and size of the progeny.

[6] = tested on: Drosophila; test: Locomotor activity, negative geotaxis in counter current distribution apparatus; type: in vivo, Drosophila melanogaster; settings: old flies, FIG. 3A
Description: Life extension without maintaining physical or mental vigor is undesirable. To examine whether the life span increase by PBA is associated with extended maintenance of vigor, the locomotor activity was measured for young and old flies raised with and without PBA treatment. A known assay of negative geotaxis in a counter current distribution apparatus was measured the locomotor activity of the flies (Benzer, S. Proc. Natl. Acad. Sci. U.S.A. 58, 1112-1119 (1967); FIG. 3A).

[7] = tested on: Drosophila; test: Resistance to paraquat induced stress (survival); type: in vivo, Drosophila melanogaster; settings: sucrose solution containing 20 mM paraquat, FIG. 3C
Description: (§3) Stress to an animal can be achieved by starvation or an increase production of free radicals. The effective removal of free radicals or the increase of antioxidant levels reduce stress to the animal and are important in slowing down the ageing process. The failure to repair oxidative damages and the elevation of free radial is known to shorten the life span of animal. Therefore, resistance to stress was measured in PBA fed flies by measuring if they have an increase resistance to the free radical generator, paraquat, and to dry starvation. PBA treated and control flies drank sucrose solution containing 20 mM paraquat were tested for duration of life span (e.g. survival) (FIG. 3C). […] PBA treated and control flies were also put into empty vials to measure their survival on dry starvation (FIG. 3B).

[8] = tested on: Drosophila; test: Survival on dry starvation; type: in vivo, Drosophila melanogaster; settings: empty vials, FIG. 3B
Description: as §3

[9] = tested on: histones H3 and H4; test: Histone acetylation level by western blot in flies fed PBA; type: in vivo, Drosophila melanogaster; settings: flies fed PBA versus untreated, FIG. 4A and 4B
Source text: PBA, an inhibitor of histone deacetylase, is known to enhance acetylation in the tails of histones H3 and H4, which causes the tails to be released from the DNA (Lea et al. Induction of Histone Acetylation and Growth Regulation in Erythroleukemia Cells by 4-phenylbutyrate and Structural Analogs Anticancer Research 19:1971-1976 (1999)). The acetylation of histones changes the binding affinity between histones and DNA, and leads genes to recruit transcription factors and undergo transcription. Using western blots stained with specific antibodies, the level of histone acetylation was measured in Drosophila, with and without PBA treatment. Batches of 100 flies (males+females) were used to prepare histones (Alfageme, C. R., Zweidler, A., Mahowald, A. & Cohen, L. H. Histones of Drosophila embryos J. Biol. Chem. 12, 3729-3736 (1974)). The homogenates of whole flies were centrifuged at 2,500×g for 10 min in a medium containing 0.05 M glycine, 10 mM Tris potassium maleate, 5 mM MgCl2, 10 mM mercaptoethanol, pH 7.3. Isolated nuclei were used to extract histones by HCl treatment. 10 μg samples of histone protein were loaded on a 16.5% polyacrylamide gel for electrophoresis, then transferred to a PVDF membrane (Immobilin-P transfer membrane, Millipore, Bedford, Mass.), followed by hybridization with antibodies to acetylated and nonacetylated H3 and H4 (Upstate Biotechnology, Lake Placid, N.Y.).

[10] = tested on: Drosophila EST clones; test: Differential gene expression on high density membrane arrays; type: in vivo, Drosophila melanogaster; settings: 10 mM PBA, 10 days, 29° C.
Description: To investigate the differential pattern of gene activity resulting from PBA treatment, high density membrane arrays containing about 27,000 Drosophila EST clones (Research Genetics, Huntsville, Tenn.) were used. Messenger RNA was prepared from either 10 day old flies that had been treated with 10 mM PBA at 29° C. from emergence onward. A similar preparation was made from untreated flies. These RNA preparations were used as probes on the membrane arrays.
The Smart PCR cDNA synthesis kit (Clontech, Palo Alto, Calif.) was used to synthesize probes for hybridization. Total RNA was prepared from flies (males+females) fed for 10 days at 29° C. with medium containing 10 mM PBA or plain medium. After first strand synthesis of cDNAs by MMLV reverse transcriptase (M-MLV reverse transcriptase, Boehringer Mannheim, Indianapolis, Ind.), the cDNA was amplified by polymerase chain reaction (PCR). The reaction consisted of 95° C. for 1 minute, then 24 cycles of 95° C. for 15 seconds, 65° C. for 30 seconds, and 68° C. for 6 minutes. Probes were prepared by a random primed DNA labeling method with p^32. Filters containing 27,000 Drosophila EST clones (Research Genetics, Huntsville, Tenn.) were prehybridized for 4 hours, then probes were added to hybridize for 16 hours at 58° C. in a buffer containing 1 M NaCl, 0.05M Tris (pH 8.0), 5 mM EDTA, 1% SDS, and 10% Dextran Sulfate. […]

[11] = tested on: transcription levels; test: Verification of changes in transcription levels (RT-PCR / Northern); settings: 10 mM PBA, 10 days, 29° C.
Description: In another embodiment of the invention RT-PCR was be used to verify the changes in transcription levels seen by the difference in hybridization on the membrane arrays. Newly emerged adult flies (males+females) were fed food containing 10 mM PBA, or plain food for 10 days at 29° C., then total RNA was extracted and used to synthesize cDNA. For each PCR reaction, 50 ng of cDNA was used. Primers were designed from the sequence of each gene to detect fragments of between 300 and 600 base pairs (Table 4). PCR reactions were performed with 30 cycles of 94° C. for 1 minute, 55° C. for 1 minute, and 72° C. for 1 minute.
Biochem. Biophys. 301, 34-40 (1993)). Elongation factor1-alpha plays a critical role in maintaining the level of protein synthesis, which normally declines with age (Webster, G. C. & Webster, S. L. Specific disappearance of translatable messenger RNA for elongation factor one in aging Drosophila melanogaster. Mech. Ageing Devel. 24, 335-342). […] Heat shock proteins enhance resistance to stress and extend life span (Tatar, M., Khazaeli, A. A. & Curtsinger, J. W. Chaperoning extended life. Nature 390, 30 (1997); Lithgow, G. J. Temperature, stress response and aging. Rev. Clin. Gerontol. 6, 119-127 (1996)).

[12] = tested on: histone deacetylase; settings: Lea & Randolph 1998; cited from earlier work
[13] = w^118 flies, medium containing 10 mM PBA, 29° C. (FIG. 1A)
[14] = 10 mM PBA, 10 days, 25° C., n = 10
[15] = 10 mM PBA, 10 days, 25° C., n = 40
[16] = progeny of flies raised on 10 mM PBA, n = 10
[17] = progeny of flies raised on 10 mM PBA, n = 40

SMILES: O=C([O-])CCCc1ccccc1.[Na+] [PBA, 4-phenylbutyric acid, sodium salt]
- life span compared to same strain fed on fly medium ([1]; Canton-S strain, 10 mM PBA (FIG. 1C)): extended life span
- effect on longevity ([1]; w^118 flies, lower concentrations of PBA (0.1, 1, 2.5, 5 mM)): no effect on longevity
- extension in maximum life span [1, 13]: 60%
- extension in median life span [1, 13]: about 35%
- life span compared with untreated flies ([2]; PBA from emergence to 12 days, then plain medium): increased life span compared with untreated flies
- life span compared with untreated flies ([2]; plain medium for first 12 days, then PBA for remainder of life): increased life span compared with untreated flies
- treatment initiated at later age versus young age ([2]; virgin female flies (not in males), FIG. 2A): even more effective than the same duration of treatment at young age
- intake of food (colour of alimentary tract) [3]: No difference
- weight of 5 flies, parent females [4, 14]: 5.1 ± 0.2 mg
- weight of 5 flies, parent males [4, 14]: 3.3 ± 0.4 mg
- size of fly, parent female [4, 15]: 5.5 ± 0.1 mm
- size of fly, parent male [4, 15]: 4.6 ± 0.1 mm
- weight and size of the flies versus control ([4]; after ten days of feeding with or without PBA): no differences were observed
- egg laying ([5]; 3 males + 3 females a vial for 16 hrs, n = 20 vials, 10 mM PBA, 10 days, 25° C.): 70 ± 16
- effect on reproductive activity of female flies ([5]; all measurements of Table 1): no detrimental effect
- % of eggs yielding adults ([5]; n = 20 vials, 10 mM PBA, 10 days, 25° C.): 70 ± 16%
- weight of 5 flies, progeny females [5, 16]: 5.2 ± 0.2 mg
- weight of 5 flies, progeny males [5, 16]: 3.5 ± 0.3 mg
- size of fly, progeny female [5, 17]: 5.5 ± 0.1 mm
- size of fly, progeny male [5, 17]: 4.6 ± 0.2 mm
- climbing ability (locomotor activity) [6]: enhanced the climbing ability of old flies significantly
- survival under paraquat induced stress [7]: survived much longer
- resistance to dry starvation [8]: enhanced the resistance to starvation
- acetylation of histones H3 and H4 [9]: increase of acetylated H3 and H4
- number of genes strongly induced [10]: One hundred
- number of genes suppressed ([10]; disappearance of a visible spot): 48
- Fold-change, cytochrome P450-4d1 (CG3656) ([11]; induced): 7.2 fold
- Fold-change, daughterless (CG5102) ([11]; induced): 8.0 fold
- Fold-change, dnaJ like2 (CG3061) ([11]; induced): 2.9 fold
- Fold-change, epididymal secretory protein (CG7291) ([11]; induced): 7.5 fold
- Fold-change, glutathione S transferase (CG10045) ([11]; induced): 4.6 fold
- Fold-change, hsc70 (CG4264) ([11]; induced): 4.5 fold
- Fold-change, hsp60 (CG12101) ([11]; induced): 6.7 fold
- Fold-change, imaginal disc growth factor1 (CG4472) ([11]; induced): 5.3 fold
- Fold-change, inebriated (CG15444) ([11]; induced): 26.8 fold
- Fold-change, mitochondrial phosphate carrier protein (CG4994) ([11]; induced): 5.1 fold
- Fold-change, superoxide dismutase (CG8905) ([11]; induced): 51.9 fold
- Fold-change, translational elongation factor1 α (CG8280) ([11]; induced): 4.1 fold
- Fold-change, transportin (CG7398) ([11]; induced): 8.0 fold
- Fold-Change, NADH:ubiquinone reductase 75kD subunit precursor (CG2286) ([11]; repressed): 25.3 fold
- Fold-Change, calreticulin (GH25160) ([11]; repressed): 26.5 fold
- Fold-Change, cyclin-dependent kinase9 (GH21935) ([11]; repressed): 2.7 fold
- Fold-Change, cytochrome c oxidase (FBgn0013674) ([11]; repressed): 6.6 fold
- Fold-Change, cytochrome c oxidase subunit Vlb (CG14235) ([11]; repressed): 2.2 fold
- Fold-Change, dnaJ like1 (CG10578) ([11]; repressed): 13.2 fold
- Fold-Change, fatty acid synthetase (CG3523) ([11]; repressed): 2.4 fold
- Fold-Change, glyceraldehyde 3 phosphate dehydrogenase1 (CG12055) ([11]; repressed): 3.7 fold
- Fold-Change, hexokinase (CG3001) ([11]; repressed): 5.0 fold
- Fold-Change, osa (GH03026) ([11]; repressed): 5.0 fold
- Fold-Change, peptidyl glycine α hydroxylating monooxygenase (CG3832) ([11]; repressed): 1.4 fold
- Fold-Change, peroxisomal farnesylated protein (GH03076) ([11]; repressed): 1.8 fold
- Fold-Change, porin (GH08586) ([11]; repressed): 1.4 fold
- activity on histone deacetylase [12]: inhibits the activity of histone deacetylase
